Laboratory results as given in patent US7671054B1, “Reverse-turn mimetics and method relating thereto” (Choongwae Pharma Corporation, priority 2001, dated 2010).
Values after ≈ are worked out from the molar mass of the structure shown. “Also recorded” adds a separate entry of the source.

Tests used:
DLD-1 = test: Sulforhodamine B (SRB) assay; format: cell-based; conditions: Homo sapiens; DLD-1, Colon; 48 hours; read-out: GI50 (SRB in vitro cytotoxicity)
Procedure: (§1) Growth inhibitory effect of Compound A on the cells listed below was measured by the sulforhodamine B assay. SW480 cells in 100 μl media were plated in each well of 96-well plate and allowed to attach for 24 hours. Compound A was added to the wells to produce the desired final concentrations, and the plates were incubated at 37° C. for 48 hours. The cells were then fixed by gentle addition of 100 μl of cold (4° C.) 10% trichloroacetic acid to each well, followed by incubation at 4° C. for 1 hour. Plates were washed with deionized water five times and allowed to air dry. The cells were then stained by addition of 100 μl SRB solution (0.4% SRB(w/v) in 1% acetic acid (v/v)) to wells for 15 min. After staining, the plates were quickly washed five times with 1% acetic acid to remove any unbound dye, and allowed to air dry. Bound dye was solubilized with 10 mmol/L Tris base (pH 10.5) prior to reading the plates. The optical density (OD) was read on a plate reader at a wavelength of 515 nm with Molecular Device. Inhibition of growth was expressed as relative viability (% of control) and GI50 was calculated from concentration-response curves after log/probit transformation.

HT1080 = test: Sulforhodamine B (SRB) assay; format: cell-based; conditions: Homo sapiens, HT-1080; HT1080, listed under Prostate; 48 hours; read-out: GI50 (SRB in vitro cytotoxicity)
Procedure: as §1

HL60 = test: Sulforhodamine B (SRB) assay; format: cell-based; conditions: Homo sapiens, HL-60; HL60, Leukemia; 48 hours; read-out: GI50 (SRB in vitro cytotoxicity)
Procedure: as §1

K562/ADR = test: Sulforhodamine B (SRB) assay; format: cell-based; conditions: Homo sapiens, Leukemia, 48 hours, read-out: GI50 (SRB in vitro cytotoxicity)
Procedure: as §1

M14 = test: Sulforhodamine B (SRB) assay; format: cell-based; conditions: Homo sapiens; M14, Melanoma; 48 hours; read-out: GI50 (SRB in vitro cytotoxicity)
Procedure: as §1

A431 = test: Sulforhodamine B (SRB) assay; format: cell-based; conditions: Homo sapiens, A-431; A431, Melanoma; 48 hours; read-out: GI50 (SRB in vitro cytotoxicity)
Procedure: as §1

UACC62 = test: Sulforhodamine B (SRB) assay; format: cell-based; conditions: Homo sapiens, UACC-62; UACC62, Melanoma; 48 hours; read-out: GI50 (SRB in vitro cytotoxicity)
Procedure: as §1

HCT116 = test: Sulforhodamine B (SRB) assay; format: cell-based; conditions: Homo sapiens, HCT-116; HCT116, Colon; 48 hours; read-out: GI50 (SRB in vitro cytotoxicity)
Procedure: as §1

NCI H23 = test: Sulforhodamine B (SRB) assay; format: cell-based; conditions: Homo sapiens; NCI H23, Lung; 48 hours; read-out: GI50 (SRB in vitro cytotoxicity)
Procedure: as §1

LOX-IMVI = test: Sulforhodamine B (SRB) assay; format: cell-based; conditions: Homo sapiens, Melanoma, 48 hours, read-out: GI50 (SRB in vitro cytotoxicity)
Procedure: as §1

K562/VIN = test: Sulforhodamine B (SRB) assay; format: cell-based; conditions: Homo sapiens, Leukemia, 48 hours, read-out: GI50 (SRB in vitro cytotoxicity)
Procedure: as §1

A253 = test: Sulforhodamine B (SRB) assay; format: cell-based; conditions: Homo sapiens; A253, Melanoma; 48 hours; read-out: GI50 (SRB in vitro cytotoxicity)
Procedure: as §1

CRL1579 = test: Sulforhodamine B (SRB) assay; format: cell-based; conditions: CRL1579, Melanoma; 48 hours; read-out: GI50 (SRB in vitro cytotoxicity)
Procedure: as §1

CAKI-1 = test: Sulforhodamine B (SRB) assay; format: cell-based; conditions: Homo sapiens; CAKI-1, Renal; 48 hours; read-out: GI50 (SRB in vitro cytotoxicity)
Procedure: as §1

PC3 = test: Sulforhodamine B (SRB) assay; format: cell-based; conditions: Homo sapiens, PC-3; PC3, Prostate; 48 hours; read-out: GI50 (SRB in vitro cytotoxicity)
Procedure: as §1

SK-MEL-28 = test: Sulforhodamine B (SRB) assay; format: cell-based; conditions: Homo sapiens; SK-MEL-28, Melanoma; 48 hours; read-out: GI50 (SRB in vitro cytotoxicity)
Procedure: as §1

SW620 = test: Sulforhodamine B (SRB) assay; format: cell-based; conditions: Homo sapiens, SW-620; SW620, Colon; 48 hours; read-out: GI50 (SRB in vitro cytotoxicity)
Procedure: as §1

RPM17951 = test: Sulforhodamine B (SRB) assay; format: cell-based; conditions: RPM17951, Melanoma; 48 hours; read-out: GI50 (SRB in vitro cytotoxicity)
Procedure: as §1

NCI H460 = test: Sulforhodamine B (SRB) assay; format: cell-based; conditions: Homo sapiens; NCI H460, Lung; 48 hours; read-out: GI50 (SRB in vitro cytotoxicity)
Procedure: as §1

G361 = test: Sulforhodamine B (SRB) assay; format: cell-based; conditions: Homo sapiens, G-361; G361, Melanoma; 48 hours; read-out: GI50 (SRB in vitro cytotoxicity)
Procedure: as §1

HT29 = test: Sulforhodamine B (SRB) assay; format: cell-based; conditions: Homo sapiens, HT-29; HT29, Colon; 48 hours; read-out: GI50 (SRB in vitro cytotoxicity)
Procedure: as §1

[1] = system: GAP-43 in PC-12 PS-1/L286V cells; test: GAP-43 immunofluorescence; format: cell-based, Rat; conditions: PS-1/L286V mutant PC-12 cells; 10 μM
Procedure: Immunofluorescence. Cells were plated at a density of 10,000 cells/cm^2 on sterile coated 22×22 mm coverslips in a 6-well culture plate. Differentiation was initiated, as previously described, for 10 days. The differentiated cells were then fixed in methanol for 15 minutes at −20° C. This is followed by a 15 minutes incubation with PBS+0.1% Triton X-100. The coverslips were incubated with antibodies raised against Ephrin B2 Receptor (Santa Cruz Biotechnology) and Gap-43 (Novus Biologicals) for 40 minutes at 37° C. After a series of washes with PBS-Triton X-100, secondary antibody conjugated to FITC (Jackson ImmunoResearch, Westgrove, Pa.) was applied. All slides images were acquired using a Nikon PCM2000 Laser Scanning Confocal Microscope mounted on a Nikon Eclipse E600 upright microscope (Nikon, Melville, N.Y.).

[2] = system: survivin promoter in wild type, CBP+/−, p300+/− 3T3 cells; test: Survivin promoter luciferase reporter in 3T3 cells; format: cell-based
Excerpt: A plasmid containing luciferase under the control of survivin promoter was constructed and transfected into wild type, CBP+/−, or p300+/−3T3 cells.

SMILES: O=c1[nH]cc(F)c(=O)[nH]1 [Compound 5-FU, 5-fluorouracil]
- GI50 (DLD-1): > 10 µg/mL
- GI50 (HT1080): 0.798 µg/mL (≈ 6.13 µM)
- GI50 (HL60): 7.01 µg/mL (≈ 53.9 µM)
- GI50 (K562/ADR): > 10 µg/mL
- GI50 (M14): 1.23 µg/mL (≈ 9.42 µM)
- GI50 (A431): 0.404 µg/mL (≈ 3.11 µM)
- GI50 (UACC62): 1.09 µg/mL (≈ 8.4 µM)
- GI50 (HCT116): 1.04 µg/mL (≈ 7.99 µM)
- GI50 (NCI H23): 2.25 µg/mL (≈ 17.3 µM)
- GI50 (LOX-IMVI): > 10 µg/mL
- GI50 (K562/VIN): 7.07 µg/mL (≈ 54.4 µM)
- GI50 (A253): 2.93 µg/mL (≈ 22.5 µM)
- GI50 (CRL1579): > 10 µg/mL
- GI50 (CAKI-1): 0.925 µg/mL (≈ 7.11 µM)
- GI50 (PC3): > 10 µg/mL
- GI50 (SK-MEL-28): > 10 µg/mL
- GI50 (SW620): 5.57 µg/mL (≈ 42.8 µM)
- GI50 (RPM17951): 0.92 µg/mL (≈ 7.07 µM)
- GI50 (NCI H460): 1.4 µg/mL (≈ 10.7 µM)
- GI50 (G361): 1.54 µg/mL (≈ 11.8 µM)
- GI50 (HT29): 5.33 µg/mL (≈ 41 µM)

SMILES: O=C1[C@H](Cc2ccc(O)cc2)N2C(=O)CCN(C(=O)NCc3ccccc3)[C@H]2CN1Cc1cccc2ccccc12 [Compound D]
- GAP-43 staining [1]: significantly elevated
- survivin gene expression (luciferase under survivin promoter) [2]: reduces expression of the survivin gene; also recorded: knout-down
- Wnt1 stimulation of survivin gene expression ([2]; with Wnt1): decreases the stimulation of the survivin gene expression by Wnt1
